The numbers were not newly measured in patent publication US10980792B2, “Formulations of Cabozantinib” (Zhuhai Beihai Biotech Co., Ltd., priority 2016, dated 2021), which cites them from elsewhere.

`COc1cc2nccc(Oc3ccc(NC(=O)C4(C(=O)Nc5ccc(F)cc5)CC4)cc3)c2cc1OC` [Cabozantinib, cabozantinib]: the solubility in water entry is reported as “practically insoluble”. Further, the “protein bound in human plasma” value with human plasma is on record as no less than 99.7%.
